The supplement of paper PMC10307832

Tests used:
Assay in all cases: relative viability (nuclei count vs DMSO), 5 days (fraction); higher = more cells survive
[1] = compound: C1CC2=C(C1)C=C(C=C2)OC3=NC(=C4C(=N3)N(C=N4)CC5=CC=C(C=C5)C6=CC=CC=C6)N[C@@H](CC7=CC=CC=C7)CO [QS11] + CC(=O)Nc1cccc(-n2c(=O)n(C3CC3)c(=O)c3c(Nc4ccc(I)cc4F)n(C)c(=O)c(C)c32)c1 [Trametinib] (partner 0.02 µM)
Method in brief: (§1)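 Lung cancer cell lines in 1536-well plates got either a single drug or a fixed anchor-drug dose together with five library-drug doses (not always all listed) in √10 steps, by pin tool, on the day after seeding. Nuclei were counted after 5 days, and relative viability is the treated-to-vehicle ratio of nuclei counts. Values are medians of duplicate plates.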

[2] = compound: C1CC2=C(C1)C=C(C=C2)OC3=NC(=C4C(=N3)N(C=N4)CC5=CC=C(C=C5)C6=CC=CC=C6)N[C@@H](CC7=CC=CC=C7)CO [QS11] + C[C@@H](Oc1cc(-c2cnn(C3CCNCC3)c2)cnc1N)c1c(Cl)ccc(F)c1Cl [Crizotinib] (partner 1 µM)
Method in brief: as §1

[3] = compound: CC1=C(C=C(C=C1)NC(=O)C2=CC(=CC=C2)C(C)(C)C#N)NC3=CC4=C(C=C3)N=CN(C4=O)C [AZ628] + CS(=O)(=O)N1CCN(Cc2cc3nc(-c4cccc5[nH]ncc45)nc(N4CCOCC4)c3s2)CC1 [Pictilisib] (partner 1 µM)
Method in brief: as §1

[4] = compound: CC1=C(C=C(C=C1)NC(=O)C2=CC(=CC=C2)C(C)(C)C#N)NC3=CC4=C(C=C3)N=CN(C4=O)C [AZ628] + O=C(c1cc(Cc2n[nH]c(=O)c3ccccc23)ccc1F)N1CCN(C(=O)C2CC2)CC1 [Olaparib] (partner 8 µM)
Method in brief: as §1

Cell Line	relative viability ([1]; first compound 0.08 µM)	relative viability ([1]; first compound 0.253 µM)	relative viability ([1]; first compound 0.8 µM)	relative viability ([1]; first compound 2.53 µM)	relative viability ([1]; first compound 8 µM)	relative viability ([2]; first compound 0.08 µM)	relative viability ([2]; first compound 0.253 µM)	relative viability ([2]; first compound 0.8 µM)	relative viability ([2]; first compound 2.53 µM)	relative viability ([2]; first compound 8 µM)	relative viability ([3]; first compound 0.08 µM)	relative viability ([3]; first compound 0.8 µM)	relative viability ([3]; first compound 2.53 µM)	relative viability ([3]; first compound 8 µM)	relative viability ([4]; first compound 0.08 µM)	relative viability ([4]; first compound 0.253 µM)	relative viability ([4]; first compound 0.8 µM)	relative viability ([4]; first compound 2.53 µM)	relative viability ([4]; first compound 8 µM)	relative viability ([3]; first compound 0.253 µM)
CAL-12T	0.313	0.328	0.355	0.367	0.358	0.579	0.733	0.626	0.394	0.512	0.393	0.416	0.298	0.505	0.713	0.68	0.781	0.637	0.457	
NCI-H1648	0.603	0.535	0.423	0.557	0.486										1.09	0.62	1.01	0.767	0.556	
NCI-H358	0.117	0.136	0.167	0.153	0.157	0.723	0.525	0.457	0.402	0.379	0.341	0.286	0.308	0.349	0.567	0.457	0.361	0.417	0.295	0.289
NCI-H3122	0.213	0.239		0.253	0.343	0.25	0.3	0.313	0.436	0.616	0.286	0.214	0.214	0.234	0.652	0.634	0.561	0.565	0.379	0.218
NCI-H2347	0.27	0.292	0.273	0.313	0.286	0.683	0.645	0.671	0.501	0.76	0.321	0.312	0.32	0.287	0.516	0.537	0.506	0.594	0.43	0.437
HCC-15	0.307	0.388	0.335	0.319	0.314	0.807	0.927		0.803	0.779	0.729	0.52	0.553	0.33	0.712	0.747	0.737	0.738	0.53	0.533
HCC-366	0.348	0.346		0.218	0.116	0.565	0.542		0.292	0.324	0.15	0.0993	0.126	0.0787	0.358	0.31	0.263	0.271	0.192	0.18
BEN	1.06	1.11	1.08	1.12	1.11	0.801	1.06	0.978	0.736	1.09	0.621	0.487	0.49	0.458	1.26	0.912	0.995	1.03	1.02	0.523
NCI-H1993	0.57	0.532	0.442	0.508	0.522	0.974	0.756	0.868	0.827	0.771	0.784	0.705	0.769	0.726	1.18	1.19	1.05	0.933	0.773	0.829
NCI-H2405	0.628	0.585	0.731	0.719	0.79	0.822	0.883	0.808	0.88	0.95	0.222	0.256	0.255	0.257	0.661	0.792	0.572	0.646	0.555	0.249
NCI-H1703						1.08	0.749	0.585	0.73	0.951	0.231	0.235	0.197	0.251	0.239	0.216	0.216	0.178	0.177	0.235
Calu-6						0.907	0.914	0.728	0.952	0.828	0.896	0.409	0.553	0.144	0.595	0.491	0.496	0.41	0.16	0.64
IA-LM						0.697	0.94	0.675	0.693	0.712	0.352	0.155	0.145	0.115	1.03	0.815	0.846	0.875	0.363	0.231
NCI-H1395	0.935	1.04	1.19	1.01	1.03						0.645	0.618	0.629	0.662	0.478	0.458	0.443	0.461	0.447	0.621
A549						0.791	0.773	0.613	0.483	0.522	0.473	0.311	0.406	0.138	0.299	0.28	0.495	0.348	0.199	0.378
EBC-1						0.19	0.203	0.206	0.224	0.238	0.341	0.271	0.233	0.201	0.609	0.615	0.737	0.684	0.314	0.299
NCI-H522	0.795	0.791	0.675	0.799	0.943										0.643	0.691	0.602	0.689	0.522	
NCI-H1299						0.998	0.947	0.948	0.892	0.699	0.643	0.306	0.283	0.167	1.12	1.18	1.12	1.27	0.628	0.464
NCI-H1563						0.836	0.937	0.925	0.86	0.814	0.613	0.657	0.658	0.616						0.667
SW 900	0.797	0.724	0.724	0.721	0.453										1.04	0.878	1.02	0.951	0.683	
